Measurements from BindingDB's records for doi:10.1111/cbdd.12881 (Sichuan University, 2017).

What was measured:
Test in all cases: In Vitro Enzymatic Assay
Conditions in all cases: 25 °C
[1] = target: Protein arginine N-methyltransferase 5 (Homo sapiens, UniProt O14744)
Description: (§1) All in vitro enzymatic assays were carried out by Shanghai ChemPartner Co. (998 Halei Road, Pudong New Area, Shanghai, 201203, China). To measure the IC50 values, 10 concentrations of the target compound were tested. Compounds were prepared as10 mM stock in DMSO and diluted to final concentration in DMSO when needed. The PRMT enzymes and substrates were incubated with indicated concentrations of compounds in a 384-well plate for 60 min at room temperature. After the reaction, acceptor and donor solutions were added to label the residual substrates of PRMT enzymes. The labeling process was lasting for 60 min at room temperature, followedby the reading end-point with Enspire with alpha mode.

[2] = target: Protein arginine N-methyltransferase 8 (Homo sapiens, UniProt Q9NR22)
Chain of Protein arginine N-methyltransferase 8 (Q9NR22 whole entry): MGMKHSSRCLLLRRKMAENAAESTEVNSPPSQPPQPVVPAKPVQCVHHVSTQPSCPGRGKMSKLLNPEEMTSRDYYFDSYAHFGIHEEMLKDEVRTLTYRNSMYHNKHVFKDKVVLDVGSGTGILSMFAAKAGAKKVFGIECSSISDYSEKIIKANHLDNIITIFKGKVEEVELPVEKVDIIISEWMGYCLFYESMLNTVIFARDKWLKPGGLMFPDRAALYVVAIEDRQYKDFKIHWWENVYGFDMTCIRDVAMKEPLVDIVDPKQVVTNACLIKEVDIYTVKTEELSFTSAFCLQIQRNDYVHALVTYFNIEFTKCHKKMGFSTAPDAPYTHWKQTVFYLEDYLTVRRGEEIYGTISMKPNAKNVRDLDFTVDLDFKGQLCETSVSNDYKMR
Description: as §1

[3] = target: Protein arginine N-methyltransferase 3 [N508S] (Homo sapiens, UniProt O60678, N508S)
Chain of Protein arginine N-methyltransferase 3 [N508S] (O60678 2-531 N508S limits assumed): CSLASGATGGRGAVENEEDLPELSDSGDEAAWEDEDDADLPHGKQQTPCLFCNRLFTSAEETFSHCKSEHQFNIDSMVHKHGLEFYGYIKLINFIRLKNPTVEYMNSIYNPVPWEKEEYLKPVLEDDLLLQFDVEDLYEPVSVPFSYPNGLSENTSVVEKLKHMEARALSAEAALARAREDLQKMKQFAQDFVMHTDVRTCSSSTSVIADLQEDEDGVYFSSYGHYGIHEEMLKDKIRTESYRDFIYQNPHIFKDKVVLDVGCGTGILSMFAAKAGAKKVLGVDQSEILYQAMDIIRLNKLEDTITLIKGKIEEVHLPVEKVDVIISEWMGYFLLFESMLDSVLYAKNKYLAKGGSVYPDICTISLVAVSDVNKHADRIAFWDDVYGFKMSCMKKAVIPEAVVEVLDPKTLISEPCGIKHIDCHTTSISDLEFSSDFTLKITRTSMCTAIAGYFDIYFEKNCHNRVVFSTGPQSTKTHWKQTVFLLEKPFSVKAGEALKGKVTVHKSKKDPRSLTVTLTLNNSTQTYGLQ
Description: as §1

[4] = target: Protein arginine N-methyltransferase 6 (Homo sapiens, UniProt Q96LA8)
Chain of Protein arginine N-methyltransferase 6 (Q96LA8 whole entry): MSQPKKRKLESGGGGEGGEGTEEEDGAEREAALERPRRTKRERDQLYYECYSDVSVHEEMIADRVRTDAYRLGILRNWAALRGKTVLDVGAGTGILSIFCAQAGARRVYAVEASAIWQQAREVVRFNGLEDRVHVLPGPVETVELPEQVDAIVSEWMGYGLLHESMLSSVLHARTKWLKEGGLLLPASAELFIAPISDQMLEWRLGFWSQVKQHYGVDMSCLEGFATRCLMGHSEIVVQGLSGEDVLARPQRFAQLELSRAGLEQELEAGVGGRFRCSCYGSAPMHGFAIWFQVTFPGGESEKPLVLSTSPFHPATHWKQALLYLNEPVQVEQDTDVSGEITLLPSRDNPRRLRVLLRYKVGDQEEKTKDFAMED
Description: as §1

[5] = target: T1, Protein arginine N-methyltransferase 1 [11-371] (Homo sapiens, UniProt Q99873)
T1 construct: 11-371
T1 sequence (Q99873 11-371): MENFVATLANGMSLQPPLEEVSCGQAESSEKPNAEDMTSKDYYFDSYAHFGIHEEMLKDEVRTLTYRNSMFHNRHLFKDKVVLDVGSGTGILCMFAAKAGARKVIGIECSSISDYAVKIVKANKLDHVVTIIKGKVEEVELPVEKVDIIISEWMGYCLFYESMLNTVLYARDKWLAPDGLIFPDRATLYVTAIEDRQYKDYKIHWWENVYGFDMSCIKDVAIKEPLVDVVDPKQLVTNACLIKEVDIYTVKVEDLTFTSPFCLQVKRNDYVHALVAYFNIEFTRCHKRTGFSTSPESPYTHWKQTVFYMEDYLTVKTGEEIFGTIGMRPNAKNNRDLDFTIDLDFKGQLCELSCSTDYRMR
Description: as §1

[6] = target: T2, Protein arginine N-methyltransferase 7 (Homo sapiens, UniProt Q9NVM4)
T2 sequence (Q9NVM4 whole entry): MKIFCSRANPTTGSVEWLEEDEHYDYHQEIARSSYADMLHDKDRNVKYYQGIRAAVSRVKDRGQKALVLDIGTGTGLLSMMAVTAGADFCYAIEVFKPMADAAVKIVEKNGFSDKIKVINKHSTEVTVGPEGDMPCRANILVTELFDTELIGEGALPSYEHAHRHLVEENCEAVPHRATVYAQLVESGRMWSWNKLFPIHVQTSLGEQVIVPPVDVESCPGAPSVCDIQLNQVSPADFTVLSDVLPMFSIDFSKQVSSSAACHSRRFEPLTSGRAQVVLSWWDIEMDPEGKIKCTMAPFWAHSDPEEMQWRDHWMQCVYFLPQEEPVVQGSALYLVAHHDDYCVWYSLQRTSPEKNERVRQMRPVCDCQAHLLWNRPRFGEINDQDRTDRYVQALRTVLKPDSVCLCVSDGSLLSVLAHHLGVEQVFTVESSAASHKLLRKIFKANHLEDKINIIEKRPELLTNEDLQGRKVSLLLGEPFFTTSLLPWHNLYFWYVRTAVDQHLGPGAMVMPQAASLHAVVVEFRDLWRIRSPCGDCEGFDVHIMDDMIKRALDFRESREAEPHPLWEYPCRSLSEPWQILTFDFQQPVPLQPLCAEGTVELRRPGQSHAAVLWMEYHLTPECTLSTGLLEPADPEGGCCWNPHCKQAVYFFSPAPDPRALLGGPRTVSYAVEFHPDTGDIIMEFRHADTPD
Description: as §1

[7] = target: T3, Histone-arginine methyltransferase CARM1 (Homo sapiens, UniProt Q86X55)
T3 sequence (Q86X55 whole entry): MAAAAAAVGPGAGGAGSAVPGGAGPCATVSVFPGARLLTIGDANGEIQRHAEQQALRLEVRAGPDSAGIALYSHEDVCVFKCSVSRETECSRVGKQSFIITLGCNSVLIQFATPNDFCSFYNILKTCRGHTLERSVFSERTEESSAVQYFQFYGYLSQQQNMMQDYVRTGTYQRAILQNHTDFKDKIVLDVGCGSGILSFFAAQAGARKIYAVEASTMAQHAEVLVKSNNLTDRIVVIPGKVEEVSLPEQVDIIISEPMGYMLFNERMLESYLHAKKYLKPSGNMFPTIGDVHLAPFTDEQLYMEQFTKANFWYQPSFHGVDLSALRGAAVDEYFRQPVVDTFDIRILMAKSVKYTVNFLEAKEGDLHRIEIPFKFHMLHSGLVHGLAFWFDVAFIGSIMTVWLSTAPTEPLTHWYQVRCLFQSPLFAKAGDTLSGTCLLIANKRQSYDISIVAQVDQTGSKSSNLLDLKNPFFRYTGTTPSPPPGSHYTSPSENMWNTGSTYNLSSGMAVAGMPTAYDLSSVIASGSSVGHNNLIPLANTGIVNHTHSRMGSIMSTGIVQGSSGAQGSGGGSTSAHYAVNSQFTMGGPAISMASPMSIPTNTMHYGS
Description: as §1

Chain of Protein arginine N-methyltransferase 5 (O14744 whole entry): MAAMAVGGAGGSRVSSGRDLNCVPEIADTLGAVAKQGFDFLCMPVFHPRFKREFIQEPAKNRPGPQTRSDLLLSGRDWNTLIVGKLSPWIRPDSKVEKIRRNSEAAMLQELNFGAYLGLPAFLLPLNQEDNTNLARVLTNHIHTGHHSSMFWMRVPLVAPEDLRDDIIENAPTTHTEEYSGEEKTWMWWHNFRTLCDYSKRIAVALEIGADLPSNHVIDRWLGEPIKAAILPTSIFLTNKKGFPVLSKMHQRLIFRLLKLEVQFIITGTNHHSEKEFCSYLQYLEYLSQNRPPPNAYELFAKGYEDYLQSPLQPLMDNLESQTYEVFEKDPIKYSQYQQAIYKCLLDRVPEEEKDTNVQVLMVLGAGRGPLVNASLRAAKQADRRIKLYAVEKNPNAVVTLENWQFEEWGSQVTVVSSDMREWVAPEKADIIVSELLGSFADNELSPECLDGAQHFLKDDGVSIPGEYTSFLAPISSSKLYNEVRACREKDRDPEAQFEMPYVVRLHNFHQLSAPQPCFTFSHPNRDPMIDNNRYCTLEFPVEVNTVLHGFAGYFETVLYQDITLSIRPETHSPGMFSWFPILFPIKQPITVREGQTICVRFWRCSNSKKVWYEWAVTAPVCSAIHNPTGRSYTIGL

Row | SMILES | IC50 [1] [µM] | other results
1 | NC(=O)N/N=C/c1cccc(-c2ccc(Cl)cc2)c1 [2-((4′-chloro-[1,1′-biphenyl]-3-yl)methylene)hydrazinecarboxamide (9b)] | 3.8 | –
2 | NC(=O)N/N=C/c1ccc(-c2ccc(Cl)cc2N)o1 [2-((5-(2-amino-4-chlorophenyl)furan-2-yl)methylene)hydrazinecarboxamide (4m)] | 13 | –
3 | NC(=O)N/N=C/c1ccc(-c2cccc(F)c2)o1 [2-((5-(3-fluorophenyl)furan-2-yl)methylene)hydrazinecarboxamide (4d)] | 14 | –
4 | NC(=O)N/N=C/c1ccc(-c2ccc(N)cc2)o1 [2-((5-(4-aminophenyl)furan-2-yl)methylene)hydrazinecarboxamide (4j)] | 40 | –
5 | NC(=O)N/N=C/c1cncc(-c2ccc(Cl)cc2)c1 [2-((5-(4-chlorophenyl)pyridin-3-yl)methylene)hydrazinecarboxamide (9f)] | 6.9 | –
6 | NC(=O)N/N=C/c1ccc(-c2ccc(F)cc2)o1 [2-((5-(4-fluorophenyl)furan-2-yl)methylene)hydrazinecarboxamide (4e)] | 12 | –
7 | COc1ccc(-c2ccc(/C=N/NC(N)=O)o2)cc1 [2-((5-(4-methoxyphenyl)furan-2-yl)methylene)hydrazinecarboxamide (4h)] | 2.1 | –
8 | NC(=O)N/N=C/c1ccc(-c2ccc([N+](=O)[O-])cc2)o1 [2-((5-(4-nitrophenyl)furan-2-yl)methylene)hydrazinecarboxamide (4g)] | 18 | –
9 | NC(=O)N/N=C/c1ccc(-c2ccccc2)o1 [2-((5-phenylfuran-2-yl)methylene)hydrazinecarboxamide (4a)] | 12 | –
10 | NC(=O)N/N=C/c1cccc(-c2ccc(Cl)cc2)n1 [2-((6-(4-chlorophenyl)pyridin-2-yl)methylene)hydrazinecarboxamide (9g)] | 3.5 | –
11 | O=C1NC(=S)NC(=O)C1=Cc1ccc(-c2ccc(Cl)cc2)o1 [5-{[5-(4-chlorophenyl)furan-2-yl]methylidene}-2-sulfanylidene-1,3-diazinane-4,6-dione] | 67 | –
12 | NC(=O)N/N=C/c1ccc(-c2ccc(Cl)cc2)o1 [P5i-6] | – | IC50 [2]: > 100 µM; IC50 [3]: > 100 µM; IC50 [4]: > 100 µM; IC50 [5]: > 100 µM; IC50 [6]: > 100 µM; IC50 [7]: > 100 µM
13 | NC(=S)N/N=C/c1ccc(-c2ccc(Cl)cc2)o1 [P5i-7] | 0.72 | –
